Laboratory results as given in patent US20090137493A1, “Inhibition of tumor metastases using protein kinase C (PKC) inhibitors” (priority 2007, published 2009).
Bridges are numbered along the chain shown (N, C = ends). Where no end group is shown, it is not given here.

Legend:
JC cells = experiment: Wound healing (migration) assay, JC; type: cell-based, mouse; conditions: peptide 1 uM, re-applied every 2 h for 8 h
Description: FIGS. 15A-15D are micrographs showing the efficacy of TAT carrier peptide (TAT; FIG. 15A), αV5-3-TAT peptide (Alpha; FIG. 15B), βIIV5-3 peptide (Beta2; FIG. 15C), and εV1-2 (Epsilon; FIG. 15D) on JC cell migration.
(§1) To investigate the role of PKC inhibitors in reducing the migration of tumor cells, in vitro migration assays were performed using MDA-MB-231 breast cancer cells (FIGS. 12A-12D), MCF-7 breast cancer cell (FIGS. 13A-13D), JC cells (FIGS. 15A-15D), and 4T1 cells (FIGS. 16A-16D), in the presence of TAT carrier peptide (TAT), αV5-3-TAT peptide (Alpha), βIIV5-3 peptide (Beta2), or εV1-2 peptide (Epsilon).
(§2) Wound healing assay: Human or mouse breast cancer cell lines were grown in 6-well plates until about 90% confluent. Cells were then grown in serum free media overnight, before media was changed to media +1% FBS and peptide PKC inhibitors added (1 uM), at the same time a pipette tip was drawn across the cell layer to create a scrape ‘wound’. PKC inhibitors were re-applied every 2 h for a total of 8 h, before cells were left for a further 12 h and then the scrape was examined under phase contrast microscopy.

[1] = tested on: MDA-MB-231 breast cancer cells; experiment: Cell migration/invasion assay through a HUVEC monolayer, MDA-MB-231; type: cell-based, human; conditions: peptide 10 μM, re-applied every 2 hours for 10 hours
Description: (§3) FIGS. 14A and 14B are bar graphs showing the efficacy of TAT carrier peptide (TAT), αV5-3-TAT peptide (Alpha), βIIV5-3 peptide (Beta-2), and εV1-2 (Epsilon) in inhibiting the invasion of human MDA-MB-231 and MCF-7 breast cancer cells through a HUVEC monolayer. FIGS. 14C and 14D are bar graphs showing the efficacy of TAT carrier peptide (TAT) or αV5-3-TAT peptide in inhibiting the invasion of 4T1 (FIG. 11C) and MDA-MB-231 (FIG. 11D) cells.
as §3, with “14B show the results of a related experiment measuring” for “14B are bar graphs showing”, “εV1-2 peptide” for “εV1-2”, “14D show the results of a similar experiment” for “14D are bar graphs”
Cell Migration/invasion assay: Primary human endothelial cells (HUVEC's) were plated on top of a matrigel plug in trans-well plates. Once the cells had reached confluence (as determined by examination of a control well), 1×10^6 human breast cancer cells (MCF-7 or MDA-MB-231) expressing luciferase were added above the HUVEC cell layer. Where applicable, peptides were added to a final concentration of 10 μM and re-applied every 2 hours for 10 hours followed by further incubation. After 24-48 hours-incubation the HUVEC cell layer (and all other cells above the matrigel) were removed by scraping of the cell layer into the media and aspiration (repeated 3 times). The relative numbers of cancer cells that had crossed the HUVEC cell layer and entered the matrigel was then determined by bioluminescence detection of luciferase action following addition of luciferin substrate.

[2] = tested on: MDA-MB-231 breast cancer cells; experiment: Wound healing (migration) assay, MDA-MB-231; type: cell-based, human; conditions: peptide 1 uM, re-applied every 2 h for 8 h
Description: FIGS. 12A-12D are micrographs showing the efficacy of TAT carrier peptide (TAT; FIG. 12A), αV5-3-TAT peptide (Alpha; FIG. 12B), βIIV5-3 peptide (Beta2; FIG. 12C), and εV1-2 (Epsilon; FIG. 12D) on human MDA-MB-231 breast cancer cell migration.
as §1, §2

4T1 tumor cells = experiment: Growth of primary tumors in vivo (number of tumor cells at primary site of injection); parameters: species or system mice; conditions: animals injected with 4T1 tumor cells, FIG. 6A, versus saline
Description: FIG. 6A is a bar graph showing the affect of saline, the αV5-3-TAT conjugate peptide (αPKC), or the βIIV5-3-TAT conjugate peptide (βPKC) on the growth rate of primary tumors in vivo.
To determine if the effects observed with the α and βIIPKC peptide inhibitors was due to a decrease in metastasis as opposed to a decrease in primary tumor growth, animals injected with 4T1 tumor cells were treated with saline, the αV5-3-TAT conjugate peptide (αPKC), or the βIIV5-3-TAT conjugate peptide (βPKC) and the number of tumors cells at the primary site of injection were determined.

[3] = tested on: MCF-7 breast cancer cells; experiment: Cell migration/invasion assay through a HUVEC monolayer, MCF-7; type: cell-based, human; conditions: peptide 10 μM, re-applied every 2 hours for 10 hours
Description: as §3
FIGS. 14A and 14B show the results of a related experiment measuring the efficacy of TAT carrier peptide (TAT), αV5-3-TAT peptide (Alpha), βIIV5-3 peptide (Beta-2), and εV1-2 peptide (Epsilon) in inhibiting the invasion of human MDA-MB-231 and MCF-7 breast cancer cells through a HUVEC monolayer. […]
Cell Migration/invasion assay: Primary human endothelial cells (HUVEC's) were plated on top of a matrigel plug in trans-well plates. Once the cells had reached confluence (as determined by examination of a control well), 1×10^6 human breast cancer cells (MCF-7 or MDA-MB-231) expressing luciferase were added above the HUVEC cell layer. […] The relative numbers of cancer cells that had crossed the HUVEC cell layer and entered the matrigel was then determined by bioluminescence detection of luciferase action following addition of luciferin substrate.

[4] = tested on: MCF-7 breast cancer cells; experiment: Wound healing (migration) assay, MCF-7; type: cell-based, human; conditions: peptide 1 uM, re-applied every 2 h for 8 h
Description: FIGS. 13A-13D are micrographs showing the efficacy of TAT carrier peptide (TAT; FIG. 13A), αV5-3-TAT peptide (Alpha; FIG. 13B), βIIV5-3 peptide (Beta2; FIG. 13C), and εV1-2 (epsilon; FIG. 13D) on human MCF-7 breast cancer cell migration.
as §1, §2

[5] = tested on: 4T1 murine mammary cancer cells; experiment: Lung metastasis of luciferase-tagged 4T1 tumors in mice, imaging (relative light units); type: in vivo; conditions: 4T1-luciferase tumor-bearing mice, osmotic pump, about 35 mg/kg/day, four weeks
Description: To determine whether specific PKC inhibitors could reduce the amount of PKC translocation/activation in vivo and thereby reduce tumor cell metastasis, animals were administered an αPKC peptide inhibitor, or appropriate control, via an implanted osmotic pump, following the injection of luciferase-tagged tumor cells. […] The data are summarized in the bar graph shown in FIG. 4, along with similar data relating to the use of a βIIV5-3-TAT conjugate peptide (βPKC; SEQ ID NO: 27). The extent of lung metastasis is expressed as relative light units.
Balb/c female mice (6 weeks old) were injected semi-orthotopically with 4T1 murine mammary cancer cells tagged with luciferase ([…] cells/100 μL). One week later, an osmotic minipump was implanted subcutaneously in each animal, for delivery of saline (control), TAT peptide (control, YGRKKRRQRRR, SEQ ID NO: 25), the peptide inhibitor αV5-3 (QLVIAN, SEQ ID NO: 6) attached via an N-terminal disulfide bond to TAT peptide (YGRKKRRQRRR-CC-QLVIAN, SEQ ID NO: 26).
In other experiments, the peptide inhibitor βIIV5-3 (QEVIAN, SEQ ID NO: 13) or εV1-2 (EAVSLKPT, SEQ ID NO: 20) is attached via an N-terminal disulfide bond to the TAT peptide (SEQ ID NOs: 27 and 28, respectively). The TAT control, αV5-3-TAT, βIIV5-3-TAT, or εV1-2-TAT conjugate peptides are administered at about 35 mg/kg/day for two and four weeks.
After two weeks of treatment with αV5-3-TAT, some animals were selected form imaging (IVIS® 29, Xenogen Corporation, Alameda, Calif.) and analysis, with the remaining animals imaged after four weeks of treatment.
FIG. 4 is a bar graph showing the extent of lung metastasis, expressed as relative light units (based on imaging as exemplified in FIG. 3), in tumor-bearing mice treated for four weeks with saline, the αV5-3-TAT conjugate peptide (αPKC), or the βIIV5-3-TAT conjugate peptide (βPKC). The extent of lung metastasis, quantified approximately by the relative light units, for mice treated with saline, the αPKC inhibitor, and the βIIV5-3 PKC inhibitor peptide is shown. The extent of lung metastases is reduced in the animals treated with the αPKC inhibitor.

βIIPKC = target: T1, βIIPKC (Mus musculus, UniProt P68404); experiment: Translocation of βIIPKC in tumor cells (immunoblot of cytosol and particulate fractions); type: in vivo; conditions: FIG. 5B
T1 construct: endogenous in cells; host or cells: 4T1 murine mammary tumour cells grown as tumours in Balb/c mice
Description: FIGS. 5A-5B are bar graphs showing the percentage of translocation of αPKC (FIG. 5A) and βIIPKC (FIG. 5B) […] in tumor cells treated with αV5-3-TAT peptide.
To further characterize inhibition of metastasis using the α and βIIPKC inhibitors, the percentage of translocation of αPKC (FIG. 5A) and βIIPKC (FIG. 5B), […] was measured.

T1 sequence (P68404 1-673 isoform P68404-2): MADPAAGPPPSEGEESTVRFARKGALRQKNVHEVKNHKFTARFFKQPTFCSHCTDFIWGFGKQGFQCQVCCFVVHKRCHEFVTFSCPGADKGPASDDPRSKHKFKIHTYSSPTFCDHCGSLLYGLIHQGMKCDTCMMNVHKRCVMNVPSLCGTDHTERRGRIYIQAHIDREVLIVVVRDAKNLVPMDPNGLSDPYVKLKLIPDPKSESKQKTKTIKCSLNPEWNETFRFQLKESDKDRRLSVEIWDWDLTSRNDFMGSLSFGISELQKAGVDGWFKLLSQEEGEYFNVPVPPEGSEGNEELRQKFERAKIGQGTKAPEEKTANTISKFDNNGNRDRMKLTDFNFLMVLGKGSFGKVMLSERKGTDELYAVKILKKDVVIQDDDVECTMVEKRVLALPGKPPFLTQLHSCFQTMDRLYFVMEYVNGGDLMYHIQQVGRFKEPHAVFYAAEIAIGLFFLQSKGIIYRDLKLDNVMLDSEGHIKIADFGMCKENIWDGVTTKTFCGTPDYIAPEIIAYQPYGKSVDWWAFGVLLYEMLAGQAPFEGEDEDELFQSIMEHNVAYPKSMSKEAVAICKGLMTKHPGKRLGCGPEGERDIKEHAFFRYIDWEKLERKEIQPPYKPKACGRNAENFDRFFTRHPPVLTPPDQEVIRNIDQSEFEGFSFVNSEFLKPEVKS

YGRKKRRQRRR-CC-CGRNAE (YGRKKRRQRRRCCCGRNAE; disulfide (positions not given here); also: TAT conjugated via disulfide, Cys pair not given here) [βIIV5-3-TAT]
migration of JC cells (JC cells): reduced | invasion of MDA-MB-231 cells through a HUVEC monolayer [1]: reduced migration and invasion | migration of MDA-MB-231 breast cancer cells ([2]; listed as βIIPKC inhibitor): reduced migration and invasion | migration of MDA-MB-231 breast cancer cells ([2]; listed as βIIV5-3 peptide): reduced | reduction in the number of cells at the primary tumor site (4T1 tumor cells): no reduction | invasion of MCF-7 cells through a HUVEC monolayer [3]: reduced migration and invasion | migration of MCF-7 breast cancer cells ([4]; listed as βIIPKC inhibitor): reduced migration and invasion | migration of MCF-7 breast cancer cells ([4]; listed as βIIV5-3 peptide): reduced | effect on lung metastasis compared to control animals (in words) [5]: less pronounced effect | effect on lung metastasis compared to control animals (in words) ([5]; listed as βPKC inhibitor): about half | reduction of βIIPKC translocation (βIIPKC): did not significantly reduce

YGRKKRRQRRR-CC-EAVSLKPT (YGRKKRRQRRRCCEAVSLKPT; disulfide 12-13 (inferred)) [εV1-2-TAT]
invasion of MDA-MB-231 cells through a HUVEC monolayer [1]: reduce invasion | invasion of MCF-7 cells through a HUVEC monolayer [3]: reduce invasion
